Measured values reported in ChEMBL document CHEMBL1135027, “Tyrosylprotein sulfotransferase inhibitors generated by combinatorial target-guided ligand assembly” (Bioorg Med Chem Lett, 2002).

Experiments:
[1] = target: T1, Protein-tyrosine sulfotransferase 2 (Homo sapiens, UniProt O60704); test: Displacement of [35S]PAPS from human tyrosylprotein sulfotransferase-2 (hTPST-2); set-up: concentration or dose not given beside the values
T1 sequence (O60704 whole entry): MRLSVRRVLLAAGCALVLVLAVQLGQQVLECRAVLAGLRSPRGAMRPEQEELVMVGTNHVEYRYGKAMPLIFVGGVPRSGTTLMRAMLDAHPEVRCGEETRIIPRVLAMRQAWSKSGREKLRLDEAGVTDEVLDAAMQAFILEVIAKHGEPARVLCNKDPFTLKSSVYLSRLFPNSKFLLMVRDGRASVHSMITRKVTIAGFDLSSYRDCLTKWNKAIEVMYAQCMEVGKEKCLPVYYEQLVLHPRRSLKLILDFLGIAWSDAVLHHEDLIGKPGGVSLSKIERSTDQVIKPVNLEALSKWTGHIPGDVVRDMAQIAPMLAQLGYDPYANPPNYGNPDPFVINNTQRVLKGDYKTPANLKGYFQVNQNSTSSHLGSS

[2] = target: T1, Protein-tyrosine sulfotransferase 2; test: Inhibitory activity of compound was determined against human tyrosylprotein sulfotransferase-2 (hTPST-2) using [35S]PAPS radioligand
[3] = target: T2, Carbohydrate sulfotransferase 4 (Homo sapiens) (UniProt Q8NCG5); test: Inhibitory activity of compound was determined against human high endothelial cell (HEC) GlcNAc-6-ST sulfotransferase at 100 uM; assay type: cell-based
T2 sequence (whole entry): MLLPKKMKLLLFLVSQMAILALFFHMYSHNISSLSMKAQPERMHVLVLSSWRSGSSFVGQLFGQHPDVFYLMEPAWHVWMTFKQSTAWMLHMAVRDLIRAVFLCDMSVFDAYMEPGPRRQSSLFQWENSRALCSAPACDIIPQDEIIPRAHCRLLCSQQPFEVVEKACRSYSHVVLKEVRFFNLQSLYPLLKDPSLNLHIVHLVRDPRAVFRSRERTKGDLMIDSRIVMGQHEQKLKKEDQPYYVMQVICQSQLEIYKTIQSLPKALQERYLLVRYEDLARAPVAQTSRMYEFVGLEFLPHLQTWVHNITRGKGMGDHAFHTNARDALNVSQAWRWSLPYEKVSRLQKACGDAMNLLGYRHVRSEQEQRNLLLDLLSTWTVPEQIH

Sulfotransferase 1E1 [4] = target: T3, Sulfotransferase 1E1 (Homo sapiens, UniProt P49888); test: Compound was tested for inhibition against estrogen sulfotransferase (EST), a human cytosolic sulfotransferase.
T3 sequence (P49888 whole entry): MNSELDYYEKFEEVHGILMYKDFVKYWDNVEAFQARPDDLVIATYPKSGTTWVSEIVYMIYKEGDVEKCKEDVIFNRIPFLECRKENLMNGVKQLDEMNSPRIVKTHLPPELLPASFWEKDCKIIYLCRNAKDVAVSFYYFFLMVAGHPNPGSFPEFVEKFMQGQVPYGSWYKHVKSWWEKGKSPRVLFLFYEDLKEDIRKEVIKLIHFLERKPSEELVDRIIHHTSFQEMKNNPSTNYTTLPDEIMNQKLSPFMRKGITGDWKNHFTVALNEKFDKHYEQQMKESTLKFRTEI

[5] = target: T4, estrogen sulfotransferase (Sulfotransferase 1E1) (Homo sapiens, UniProt P49888); test: Inhibitory activity of compound was determined against human estrogen sulfotransferase at 100 uM
T4 sequence (P49888 whole entry): T3 sequence (P49888 whole entry)

[6] = Inhibitory activity of compound was determined against bacterial GlcNAc-6-sulfotransferase (NodST) at 100 uM
[7] = target: T1, Protein-tyrosine sulfotransferase 2; test: Compound was tested for reversible inhibition of human tyrosylprotein sulfotransferase-2 (hTPST-2) at 40 uM for 5 hours and dialyzed
Sulfotransferase 1E1 [8] = target: T3, Sulfotransferase 1E1; test: Compound was tested for inhibition against estrogen sulfotransferase (EST), a human cytosolic sulfotransferase
[9] = target: T1, Protein-tyrosine sulfotransferase 2; test: Compound was tested for reversible inhibition of human tyrosylprotein sulfotransferase-2 (hTPST-2) at 40 uM for 5 hours and dialyzed; complete reversible inhibition observed.
[10] = target: T4, estrogen sulfotransferase (Sulfotransferase 1E1); test: Inhibitory activity of compound was determined against estrogen sulfotransferase at 100 uM
[11] = target: T1, Protein-tyrosine sulfotransferase 2; test: Inhibitory activity of compound was determined against human tyrosylprotein sulfotransferase-2 (hTPST-2) using [35S]PAPS radioligand at 800 uM

SMILES: CO/N=C/c1ccc(-c2ccc(Cl)cc2)o1
- Inhibition [1]: 70%

SMILES: CO/N=C/c1coc2cc(C)c(C)cc2c1=O
- Inhibition [1]: 35%

SMILES: CO/N=C/c1ccc([N+](=O)[O-])s1
- Inhibition [1]: 65%

SMILES: CO/N=C/c1c(O)ccc2ccccc12
- Inhibition [1]: 34%

SMILES: CO/N=C/c1cc(I)cc(I)c1O
- Inhibition [1]: 48%

SMILES: CO/N=C/C(C)=C/c1ccco1
- Inhibition [1]: 59%

SMILES: CO/N=C/c1cc(Br)c(O)c(Br)c1
- IC50 [2]: 425 µM

SMILES: CO/N=C/C=C/c1ccc([N+](=O)[O-])o1
- Inhibition [1]: 47%

SMILES: CO/N=C/c1cc(I)c(O)c(OC)c1
- Inhibition [1]: 53%

SMILES: CO/N=C/c1cc(OC)c(O)c(OC)c1
- Inhibition [1]: 37%

SMILES: CO/N=C/c1cccc(F)c1O
- Inhibition [1]: 25%

SMILES: CO/N=C/c1cc(Br)cc([N+](=O)[O-])c1O
- IC50 [2]: > 1000 µM

SMILES: O=c1c(/C=N/OCCCCCO/N=C/c2cc(Br)cc([N+](=O)[O-])c2O)coc2c(Cl)cc(Cl)cc12
- IC50 [2]: 40 µM
- inhibition [3]: 7%
- IC50 (Sulfotransferase 1E1 [4]): 3 µM
- inhibition at 100 µM [5]: 100%
- inhibition [6]: 19%
- inhibition at 40 µM [7]: 50%

SMILES: CO/N=C/c1coc2ccc(Br)cc2c1=O
- Inhibition [1]: 85%

SMILES: CO/N=C/c1ccc(-c2cccc(Cl)c2)o1
- Inhibition [1]: 50%

SMILES: CO/N=C/c1cc(C)cc(Br)c1O
- Inhibition [1]: 31%

SMILES: O=c1c(/C=N/OCCCCCO/N=C/c2cc(Br)c(O)c(Br)c2)coc2c(Cl)cc(Cl)cc12
- IC50 [2]: 30 µM
- IC50 (Sulfotransferase 1E1 [8]): 0.25 µM
- inhibition [3]: 30%
- Inhibition [9]: complete reversible inhibition observed
- inhibition [6]: 66%
- inhibition at 100 µM [10]: 100%

SMILES: CO/N=C/c1coc2c(Cl)cc(Cl)cc2c1=O
- IC50 [2]: > 1000 µM
- inhibition at 800 µM [11]: 40%

SMILES: CO/N=C/c1c(N)oc2ccccc2c1=O
- Inhibition [1]: 45%

SMILES: CO/N=C/C(=C/c1ccco1)c1ccccc1
- Inhibition [1]: 55%
